Data taken from patent publication US11999712B1, “2-(benzo[b]thiophen-3-yl)-1-butyl-4,5-diphenyl-1H-imidazole as an anti-inflammatory and anti-microbial compound” (KING FAISAL UNIVERSITY, priority 2023, dated 2024).

How the values were obtained:
St. Aereus = test: antimicrobial activity, agar dilution method; type: cell-based; settings: after 10, 20, 40 and 60 min at all dilutions 1:100, 1:200, 1:400, 1:800
Description: (§1) The antibacterial properties of the synthesized compounds were studied by the method of agar dilution. Test solutions of each compound was prepared in a concentration of 1% using dimethylformamide as a solvent. Then the test solutions were diluted in a physiological solution to obtain the final experimental dilutions of 1:100, 1:200, 1:400, and 1:800. The effect of these substances was compared with furacillin in a controllable study. The testing microbes used were gram positive bacteria St. Aereus, gram negative bacteria E. Coli, and Ps. aeruginosa and Candida albicans fungi. The experiments used for this survey were a meat-pentonlu agar (EPA) for cultivation of bacteria and a Saburo environment for fungi. Each experiment used 1 mL of test solution on each plate for 500 min. Next, 2 drops of emulsified test solution with microbes feel were added. All experimental samples were taken from the agar after 10, 20, 40, 60 minutes in the environment on the basis of Patrk planted. Bacteria were cultivated at a temperature of 37° ° C. for 1 day and the mushroom was kept in a thermostat for […] at a temperature of 28° C. Then results were checked. Results for the control and the antimicrobial activity for the synthesized compounds are listed in Table 1 below. […]

Candida albicans = test: antimicrobial activity, agar dilution method; type: cell-based; settings: after 10, 20, 40 and 60 min at all dilutions 1:100, 1:200, 1:400, 1:800
Description: as §1

Ps. aeruginosa = test: antimicrobial activity, agar dilution method; type: cell-based; settings: after 10, 20, 40 and 60 min at all dilutions 1:100, 1:200, 1:400, 1:800
Description: as §1

E. Coli = test: antimicrobial activity, agar dilution method; type: cell-based; settings: after 10, 20, 40 and 60 min at all dilutions 1:100, 1:200, 1:400, 1:800
Description: as §1

With CCCCn1c(-c2csc3ccccc23)nc(-c2ccccc2)c1-c1ccccc1 [2-(Benzo[b]thiophen-3-yl)-1-butyl-4,5-diphenyl-1H-imidazole] the inhibition activity (St. Aereus) was “most inhibition activity”, the inhibition activity (Candida albicans) was “most inhibition activity” and the inhibition activity (Ps. aeruginosa) was “most inhibition activity”. The inhibition activity (E. Coli) was “most inhibition activity” and the melting point was 151 to 153 °C.
For CN(C)CCCn1c(-c2cccnc2)nc(-c2ccccc2)c1-c1ccccc1 [3-(4,5-Diphenyl-2-(pyridin-3-yl)-1H-imidazol-1-yl)-N,N-dimethylpropan-1-amine], the inhibition activity (St. Aereus) was “highest inhibition activity”, the inhibition activity (Candida albicans) was “highest inhibition activity” and the inhibition activity (Ps. aeruginosa) was “highest inhibition activity”. For the same compound, the inhibition activity (E. Coli) was “highest inhibition activity”.
